This note sets out measurements from PubChem BioAssay (NCI).

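Grown in 96-well plates, cells were treated for 48 hours with each compound at five concentrations. Insufficient inhibition: endpoint recorded as highest concentration tested. GI50 is the concentration that inhibits growth by half. TGI is the concentration that stops growth completely.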 Bounds are passed on as bounds.

Test systems include SNB-19 CNS; EKVX NSCLC; NCI-H460 lung; LOX IMVI melanoma; NCI/ADR-RES ovarian; OVCAR-4 ovarian; IGROV1 ovarian; CCRF-CEM leukemia; UO-31 renal; RXF 393 renal.
What all share (assay): NCI anticancer screen, dose series, 48 h

As for `COc1cc2c3c(n(CCCN=[N+]=[N-])c(=O)c2cc1OC)-c1ccc(NC(C)=O)cc1C3=O`, the GI50 in the assay on SNB-19 CNS is above 50 µM; in the assay with EKVX NSCLC it was above 50 µM; in the assay on NCI-H460 lung it was 8.97 µM; in the assay on LOX IMVI melanoma, above 50 µM; in the assay with NCI/ADR-RES ovarian, above 50 µM; in the assay with OVCAR-4 ovarian, above 50 µM. Moreover, the GI50 was 47.3 µM in the assay on IGROV1 ovarian, above 50 µM in the assay on CCRF-CEM leukemia, 46.2 µM in the assay with UO-31 renal and above 50 µM with RXF 393 renal. The TGI in the assay on SNB-19 CNS, with EKVX NSCLC, with NCI-H460 lung, in the assay on LOX IMVI melanoma, with NCI/ADR-RES ovarian and in the assay with OVCAR-4 ovarian was above 50 µM throughout. For the same compound, the TGI in the assay with IGROV1 ovarian, in the assay on CCRF-CEM leukemia, in the assay with UO-31 renal and with RXF 393 renal was above 50 µM each time.

On to `Cc1cc(O)cc(-c2nn(C)cc2-c2cc(N3CCOCC3)nc(-c3cccnc3)n2)c1`, for which the GI50 in the assay with SNB-19 CNS was 4.84 µM; in the assay on EKVX NSCLC, 10.5 µM; with NCI-H460 lung it was 3.28 µM; with LOX IMVI melanoma, 4.16 µM; in the assay on NCI/ADR-RES ovarian it was 3.43 µM; with OVCAR-4 ovarian, 7.74 µM. For the same compound, the GI50 in the assay with IGROV1 ovarian was 4.27 µM; in the assay with CCRF-CEM leukemia it was 2.72 µM; in the assay with UO-31 renal, 3.44 µM; in the assay on RXF 393 renal, 1.7 µM. The TGI with SNB-19 CNS is above 100 µM; in the assay on EKVX NSCLC it was above 100 µM; in the assay on NCI-H460 lung, above 100 µM; with LOX IMVI melanoma, 27.3 µM; with NCI/ADR-RES ovarian, 33 µM; in the assay with OVCAR-4 ovarian it was above 100 µM. Also, the TGI amounted to 72.6 µM in the assay with IGROV1 ovarian, 33.9 µM in the assay on CCRF-CEM leukemia, 43.3 µM in the assay with UO-31 renal and 6.51 µM in the assay with RXF 393 renal.

Take `O=C1c2ccccc2-c2c1c1ccc3ccccc3c1n2-c1ccccc1`: the GI50 in the assay on SNB-19 CNS was 25.7 µM; with EKVX NSCLC it was 40 µM; with NCI-H460 lung, 31.7 µM; in the assay with LOX IMVI melanoma it was 39 µM; with NCI/ADR-RES ovarian, 20.7 µM; in the assay on OVCAR-4 ovarian, above 100 µM. The GI50 is 29.7 µM in the assay with IGROV1 ovarian, above 100 µM in the assay with CCRF-CEM leukemia, 44.7 µM in the assay on UO-31 renal and 18.9 µM in the assay on RXF 393 renal. Further, the TGI with SNB-19 CNS is 59.1 µM; in the assay on EKVX NSCLC it was above 100 µM; in the assay on NCI-H460 lung it was above 100 µM; in the assay with LOX IMVI melanoma, above 100 µM; in the assay with NCI/ADR-RES ovarian it was 58.5 µM; in the assay on OVCAR-4 ovarian, above 100 µM. In addition, the TGI in the assay on IGROV1 ovarian was above 100 µM; with CCRF-CEM leukemia, above 100 µM; in the assay on UO-31 renal, above 100 µM; with RXF 393 renal, 52.1 µM.

`NCCNc1nc2ccc(F)cc2c2c(=O)c3cc(F)ccc3sc12`: the GI50 in the assay with SNB-19 CNS was 1.94 µM; in the assay on EKVX NSCLC it was 1.65 µM; with NCI-H460 lung, 1.85 µM; in the assay with LOX IMVI melanoma, 1.72 µM; with NCI/ADR-RES ovarian, 1.7 µM; with OVCAR-4 ovarian it was 2.6 µM. For the same compound, the GI50 in the assay on IGROV1 ovarian is 1.04 µM; with CCRF-CEM leukemia it was 2.11 µM; in the assay on UO-31 renal, 1.34 µM; with RXF 393 renal, 2.33 µM. The TGI with SNB-19 CNS turned out to be 4.21 µM; in the assay on EKVX NSCLC, 3.95 µM; in the assay with NCI-H460 lung, 3.47 µM; in the assay on LOX IMVI melanoma, 3.13 µM; in the assay on NCI/ADR-RES ovarian, 3.33 µM; with OVCAR-4 ovarian, 8.01 µM. For the same compound, the TGI in the assay with IGROV1 ovarian was 2.37 µM; in the assay with CCRF-CEM leukemia, 4.54 µM; in the assay with UO-31 renal, 11.3 µM; with RXF 393 renal it was 7.32 µM.

As for `COc1ccccc1C(=O)Nc1ccc(Cl)c(C(=O)OC(C)C)c1`, the TGI is above 100 µM with SNB-19 CNS; above 100 µM in the assay on EKVX NSCLC; above 100 µM in the assay on NCI-H460 lung; above 62.3 µM in the assay with LOX IMVI melanoma; 64.4 µM with NCI/ADR-RES ovarian; above 100 µM with OVCAR-4 ovarian. For the same compound, the TGI in the assay on IGROV1 ovarian was above 100 µM; in the assay with CCRF-CEM leukemia it was above 92.7 µM; in the assay with UO-31 renal it was 27.9 µM; with RXF 393 renal, above 100 µM.

Turning to `CN1CCN(c2ccc(NC(=O)c3cncnc3Nc3ccc4c(ccn4Cc4cccc(F)c4)c3)cc2)CC1`, the GI50 with SNB-19 CNS is 4.42 µM; in the assay with EKVX NSCLC, 4.78 µM; in the assay on NCI-H460 lung, 1.35 µM; in the assay on LOX IMVI melanoma it was 0.591 µM; in the assay with NCI/ADR-RES ovarian it was 4.81 µM; in the assay with OVCAR-4 ovarian, 3.97 µM. For the same compound, the GI50 in the assay on IGROV1 ovarian was 2.29 µM; in the assay with CCRF-CEM leukemia, 0.901 µM; in the assay with UO-31 renal it was 3.8 µM; in the assay on RXF 393 renal, 0.707 µM. Further, the TGI with SNB-19 CNS was 8.96 µM; in the assay with EKVX NSCLC it was 9.37 µM; with NCI-H460 lung, 4.99 µM; with LOX IMVI melanoma, 1.16 µM; in the assay with NCI/ADR-RES ovarian, 11 µM; in the assay with OVCAR-4 ovarian, 8.66 µM. Also, the TGI in the assay with IGROV1 ovarian was found to be 6.92 µM; in the assay with CCRF-CEM leukemia it was 2.66 µM; in the assay with UO-31 renal, 7.83 µM; in the assay with RXF 393 renal, 3.77 µM.

`COc1ccc(C(=O)c2cc(C)c(OC)c(C)c2)c(OC)c1OC(=O)C(Cl)Cl`: the GI50 with SNB-19 CNS is 0.0432 µM; with EKVX NSCLC, 0.321 µM; in the assay with NCI-H460 lung, 0.0629 µM; in the assay with LOX IMVI melanoma, 0.0455 µM; in the assay with NCI/ADR-RES ovarian, 0.0324 µM; in the assay on OVCAR-4 ovarian, 0.422 µM. In addition, the GI50 with IGROV1 ovarian was 0.464 µM; in the assay with CCRF-CEM leukemia, 0.0386 µM; in the assay with UO-31 renal, 0.0658 µM; in the assay on RXF 393 renal it was 0.257 µM. The TGI in the assay on SNB-19 CNS was above 100 µM; in the assay with EKVX NSCLC, above 100 µM; with NCI-H460 lung, 3.27 µM; in the assay with LOX IMVI melanoma, above 100 µM; with NCI/ADR-RES ovarian it was above 100 µM; in the assay with OVCAR-4 ovarian, above 100 µM. Besides, the TGI with IGROV1 ovarian was above 100 µM; in the assay with CCRF-CEM leukemia, above 100 µM; in the assay with UO-31 renal, above 50.5 µM; in the assay with RXF 393 renal, above 100 µM.
